Laboratory results: patent US20190359645A1, “2'3'-CYCLIC DINUCLEOTIDES COMPRISING CARBOCYCLIC NUCLEOTIDE” (Institute of Organic Chemistry and Biochemistry ASCR, V.V.I., priority 2018, published 2019)

Assays:
WT STING [1] = target: T1, WT STING (Homo sapiens, UniProt Q86WV6, H232R); experiment: 293T wt STING reporter assay; format: cell-based; set-up: host or cells: 293T (ATCC CRL-3216), stably transfected; also carries the 4xISRE firefly luciferase reporter; details: 293T wtSTING-FL cells, no digitonin, 7 h incubation, ISRE firefly luciferase reporter
Description: (§1) Two complementary oligonucleotides of the sequence […] […] […] […] (SEQ ID NO: 1) and […] […] (SEQ ID NO:2) containing four interferon-sensitive response elements (ISRE) were synthesized by Sigma Aldrich (Czech Republic, Prague). The oligonucleotides were mixed in equal molar amounts, hybridized, and cleaved by restriction endonucleases HindIII (cat. #. R^0104S, NEB, Ipswich, USA) and BglII (cat. # R^0144S, NEB, Ipswich, USA). Ultimately, they were ligated into plasmid pGL4.27 (cat. # E6651, Promega, Madison, USA) linearized with the same enzymes. As a result, the sequence with four ISRE sites was placed upstream of the minimum promoter of firefly luciferase reporter gene.
293T cells (cat. # CRL-3216, ATCC, Manassas, USA) were seeded a day before transfection at density 125,000 cells per cm^2 onto poly-D-lysine (cat. # P6407, Sigma Aldrich, Czech Republic) coated six well plates in antibiotic free DMEM with high glucose (cat. # D5796, Sigma Aldrich, Czech Republic) supplemented with 10% heat inactivated FBS (cat. # S1520, Biowest, Riverside, USA). […]

WT STING [2] = target: T1, WT STING; experiment: Digitonin assay using 293T wtSTING-FL reporter cells; format: cell-based; set-up: host or cells: 293T (ATCC CRL-3216), stably transfected; also carries the 4xISRE firefly luciferase reporter; details: 293T wtSTING-FL cells, digitonin buffer 30 min, then 5 h, ISRE firefly luciferase reporter; read-out: Digitonin assay EC50 WT STING
Description: as §1
293T cells (cat. # CRL-3216, ATCC, Manassas, USA) were seeded a day before transfection at density 125,000 cells per cm^2 onto poly-D-lysine (cat. # P6407, Sigma Aldrich, Czech Republic) coated six well plates in antibiotic free DMEM with high glucose (cat. # D5796, Sigma Aldrich, Czech Republic) supplemented with 10% heat inactivated FBS (cat. # S1520, Biowest, Riverside, USA). On the day of transfection, 2.5 μg of the plasmid pUNO1-hSTING-WT (cat. # punol-hstingwt, InvivoGen, San Diego, USA,) encoding human wild type STING (WT STING) was diluted in 125 μL OptiMEM medium (cat. #31985062, ThermoFisher, Waltham, USA) and mixed with 125 μL of the same medium containing 12.5 μL of Lipofectamine 2000 (cat. #11668019, ThermoFisher, Waltham, USA). After 5 minutes incubation at room temperature (RT), 250 μL of the mixture was added dropwise to the cells in one well. Cells were incubated 36 hours at 37° C. with 5% CO2, and then detached with 0.05% Trypsin and 0.22 g/L EDTA (both cat. # L0941, Biowest, Riverside, USA).
Transfected cells were seeded onto poly-D-lysine coated six well plates at density 50,000 cells per 1 cm^2 in DMEM medium with high glucose containing 10% heat inactivated FBS, […] blasticidin (cat. # ant-bl-05, InvivoGen, San Diego, USA), 0.06 mg/ml Penicillin G and 0.1 mg/ml Streptomycin Sulfate (both cat. #. L0018, Biowest, Riverside, USA). The medium was replenished every 3-4 days until visible colonies of cells resistant to blasticidin were formed.
Blasticidin resistant cells stably expressing WT STING were further transfected with […] plasmid following the same procedure as described above. The transfected cells were selected for the resistance to 300 μg/mL hygromycin (cat. #. 10687010, ThermoFisher, Waltham, USA) in DMEM with high glucose containing 10% heat inactivated FBS, […] blasticidin, 0.06 mg/ml Penicillin G and 0.1 mg/ml Streptomycin Sulfate. Homogeneous culture of stably double transfected cells was prepared by limiting dilution of cells in 96 well plates and wells with cells were selected that originated from a single cell. These cells were expanded, and expression of WT STING was confirmed by western blot using monoclonal mouse anti STING antibodies (cat. #. MAB7169, 1:1000 dilution; […] cat. #. HAF007, 1:2000 dilution, both from R&D Systems, Minneapolis, USA), and by induction of firefly luciferase expression in the presence of 50 μM STING agonist 2′3′ cGAMP (cat. # tlrl-nacga23, InvivoGen, San Diego, USA). Genomic DNA from the transfected cells was amplified with primers pUNO1_Seq_F ([…]) (SEQ ID NO:3) and pUNO1_Seq_R ([…]) (SEQ ID NO:4) that were complementary to pUNO1 plasmid and the presence of WT STING gene in the transfected cells was confirmed by DNA sequencing.
293T wtSTING-FL cells were seeded at density of 250,000 cells per cm^2 onto 96 well poly-D-lysine coated plates in 100 μl DMEM with high glucose supplemented with 10% heat inactivated FBS. […]

T1 sequence (Q86WV6 whole entry H232R): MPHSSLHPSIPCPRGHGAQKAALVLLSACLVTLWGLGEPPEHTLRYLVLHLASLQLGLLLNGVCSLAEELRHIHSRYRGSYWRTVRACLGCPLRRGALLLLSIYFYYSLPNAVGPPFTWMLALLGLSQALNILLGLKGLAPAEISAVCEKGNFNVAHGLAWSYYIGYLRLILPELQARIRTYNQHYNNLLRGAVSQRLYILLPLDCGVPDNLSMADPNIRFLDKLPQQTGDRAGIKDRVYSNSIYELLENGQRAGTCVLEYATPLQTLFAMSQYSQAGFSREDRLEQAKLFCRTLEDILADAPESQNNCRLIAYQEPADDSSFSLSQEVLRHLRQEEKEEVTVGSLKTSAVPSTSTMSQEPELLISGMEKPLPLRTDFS

| Structure (SMILES) | EC50 (WT STING [1]) | EC50 (WT STING [2]) |
| --- | --- | --- |
| Nc1nc(N)c2ncn([C@@H]3O[C@@H]4COP(=O)(O)OC5C(O)[C@@H](COP(=O)(O)OC4C3F)C[C@H]5n3cnc4c(=O)[nH]c(N)nc43)c2n1 (stereo partly drawn) [Compound 117, (6R,8R,15R,17R)-17-(2-amino-6-oxo-6,9-dihydro-1H-purin-9-yl)-8-(2,6-diamino-9H-purin-9-yl)-9-fluoro-3,12,18-trihydroxy-2,4,7,11,13-pentaoxa-3λ^5,12λ^5-diphosphatricyclo[13.2.1.0^6,10]octadecane-3,12-dione] | – | 0.05 µM |
| C#Cc1cn([C@@H]2O[C@@H]3COP(=O)(O)OC4C(O)[C@@H](COP(=O)(O)OC3C2O)C[C@H]4n2cnc3c(=O)[nH]c(N)nc32)c2ncnc(N)c12 (stereo partly drawn) [Compound 114, (6R,8R,15R,17R)-8-{4-amino-5-ethynyl-7H-pyrrolo 2,3-dlpyrimidin-7-yl}-17-(2-amino-6-oxo-6,9-dihydro-1H-purin-9-yl)-3,9,12,18-tetrahydroxy-2,4,7,11,13-pentaoxa-3λ^5,12λ^5-diphosphatricyclo[13.2.1.0^6,10]octadecane-3,12-dione] | – | 0.4 µM |
| Nc1nc2c(ncn2[C@@H]2C[C@@H]3COP(=O)(O)OC4C(O)[C@H](n5cnc6c(N)ncnc65)O[C@@H]4COP(=O)(O)OC2C3O)c(=O)[nH]1 (stereo partly drawn) [Compound 102, (6R,8R,15R,17R)-17-(2-amino-6-oxo-6,9-dihydro-1H-purin-9-yl)-8-(6-amino-9H-purin-9-yl)-3,9,12,18-tetrahydroxy-2,4,7,11,13-pentaoxa-3λ^5,12λ^5-diphosphatricyclo[13.2.1.0^6,10]octadecane-3,12-dione] | – | 0.1 µM |
| CSc1ncnc2c1ncn2[C@@H]1O[C@@H]2COP(=O)(O)OC3C(O)[C@@H](COP(=O)(O)OC2C1O)C[C@H]3n1cnc2c(=O)[nH]c(N)nc21 (stereo partly drawn) [Compound 110, (6R,8R,15R,17R)-17-(2-amino-6-oxo-6,9-dihydro-1H-purin-9-yl)-3,9,12,18-tetrahydroxy-8-[6-(methylsulfanyl)-9H-purin-9-yl]-2,4,7,11,13-pentaoxa-3λ^5,12λ^5-diphosphatricyclo[13.2.1.0^6,10]octadecane-3,12-dione] | – | 0.23 µM |
| Cc1cn([C@@H]2O[C@@H]3COP(=O)(O)OC4C(O)[C@@H](COP(=O)(O)OC3C2O)C[C@H]4n2cnc3c(=O)[nH]c(N)nc32)c2ncnc(N)c12 (stereo partly drawn) [Compound 113, (6R,8R,15R,17R)-8-{4-amino-5-methyl-7H-pyrrolo[2,3-d]pyrimidin-7-yl}-17-(2-amino-6-oxo-6,9-dihydro-1H-purin-9-yl)-3,9,12,18-tetrahydroxy-2,4,7,11,13-pentaoxa-3λ^5,12λ^5-diphosphatricyclo[13.2.1.0^6,10]octadecane-3,12-dione] | – | 0.12 µM |
| CNc1ncnc2c1ncn2[C@@H]1O[C@@H]2COP(=O)(O)OC3C(O)[C@@H](COP(=O)(O)OC2C1O)C[C@H]3n1cnc2c(=O)[nH]c(N)nc21 (stereo partly drawn) [Compound 108, (6R,8R,15R,17R)-17-(2-amino-6-oxo-6,9-dihydro-1H-purin-9-yl)-3,9,12,18-tetrahydroxy-8-[6-(methylamino)-9H-purin-9-yl]-2,4,7,11,13-pentaoxa-3λ^5,12λ^5-diphosphatricyclo[13.2.1.0^6,10]octadecane-3,12-dione] | – | 0.17 µM |

Next, values leading:

| EC50 (WT STING [1]) | EC50 (WT STING [2]) | Structure (SMILES) |
| --- | --- | --- |
| 11 µM | 0.04 µM | Nc1ncnc2c1ncn2[C@@H]1O[C@@H]2COP(=O)(S)O[C@@H]3[C@H](F)[C@@H](COP(=O)(S)O[C@H]2[C@H]1F)C[C@H]3n1cnc2c(=O)[nH]cnc21 (single isomer, unassigned) [Compound 128a] |
| 0.5 µM | 0.02 µM | Nc1ncnc2c1ncn2[C@@H]1O[C@@H]2COP(=O)(S)O[C@@H]3[C@H](F)[C@@H](COP(=O)(S)O[C@H]2[C@H]1F)C[C@H]3n1cnc2c(=O)[nH]cnc21 (single isomer, unassigned) [Compound 128d] |
| – | 0.06 µM | Nc1ncnc2c1ncn2[C@@H]1O[C@@H]2COP(=O)(S)O[C@@H]3[C@H](F)[C@@H](COP(=O)(S)O[C@H]2[C@H]1F)C[C@H]3n1cnc2c(=O)[nH]cnc21 (single isomer, unassigned) [Compound 128c] |
